For 22 compounds, IC50 and inhibition results are on record in ChEMBL document CHEMBL5150061, “Design and Synthesis of Fibroblast Growth Factor Receptor (FGFR) and Histone Deacetylase (HDAC) Dual Inhibitors for the Treatment of Cancer” (J Med Chem, 2022).

The target in assay [1] is Histone deacetylase 1 (Homo sapiens, UniProt Q13547). In words: Inhibition of HDAC1 (unknown origin).
Assay [2] concerns the target T1, Protein deacetylase HDAC6 (Homo sapiens, UniProt Q9UBN7).
T1 sequence (Q9UBN7 whole entry): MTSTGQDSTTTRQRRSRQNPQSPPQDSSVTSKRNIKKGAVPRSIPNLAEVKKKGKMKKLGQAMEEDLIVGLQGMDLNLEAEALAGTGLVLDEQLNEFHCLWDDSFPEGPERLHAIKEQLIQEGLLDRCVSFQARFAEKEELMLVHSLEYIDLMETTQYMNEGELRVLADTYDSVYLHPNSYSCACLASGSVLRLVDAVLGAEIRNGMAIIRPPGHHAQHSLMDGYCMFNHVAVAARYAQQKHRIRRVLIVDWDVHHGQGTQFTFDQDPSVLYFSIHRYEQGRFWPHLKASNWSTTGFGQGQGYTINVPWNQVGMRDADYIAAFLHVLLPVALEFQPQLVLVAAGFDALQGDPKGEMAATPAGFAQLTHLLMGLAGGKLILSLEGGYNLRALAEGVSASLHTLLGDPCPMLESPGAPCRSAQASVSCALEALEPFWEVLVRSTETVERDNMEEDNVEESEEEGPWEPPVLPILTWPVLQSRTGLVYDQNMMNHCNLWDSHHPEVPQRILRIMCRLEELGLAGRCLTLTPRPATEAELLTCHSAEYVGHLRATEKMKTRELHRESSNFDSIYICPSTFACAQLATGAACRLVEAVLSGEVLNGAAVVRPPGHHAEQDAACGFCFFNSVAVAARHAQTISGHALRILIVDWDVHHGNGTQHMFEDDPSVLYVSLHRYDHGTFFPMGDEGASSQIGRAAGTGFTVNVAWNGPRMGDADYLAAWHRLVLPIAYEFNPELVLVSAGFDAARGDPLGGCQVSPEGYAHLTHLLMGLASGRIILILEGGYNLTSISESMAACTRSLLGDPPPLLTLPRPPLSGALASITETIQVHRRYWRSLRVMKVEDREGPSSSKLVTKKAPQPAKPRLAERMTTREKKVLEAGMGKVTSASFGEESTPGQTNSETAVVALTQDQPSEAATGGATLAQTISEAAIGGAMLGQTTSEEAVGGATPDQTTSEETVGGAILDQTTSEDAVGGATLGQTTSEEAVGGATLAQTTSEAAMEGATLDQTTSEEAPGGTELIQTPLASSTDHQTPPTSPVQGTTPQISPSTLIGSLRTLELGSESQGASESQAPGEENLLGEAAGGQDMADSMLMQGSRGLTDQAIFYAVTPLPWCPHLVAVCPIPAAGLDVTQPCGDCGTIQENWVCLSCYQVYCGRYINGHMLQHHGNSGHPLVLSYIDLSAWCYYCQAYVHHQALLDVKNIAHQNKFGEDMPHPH
In words: Inhibition of HDAC6 (unknown origin).

Assay [3] has as its system K562. Description: cells. The format is functional, cell-based. Conditions: Homo sapiens, K562, 72 h.
The subject of assay [4] is SNU-16. Description: cells. The assay is classed as functional, cell-based. Conditions: Homo sapiens, SNU-16, 72 h.
The test system of assay [5] is A2780. In words: cells. The format is functional, cell-based. The following applies: Homo sapiens, A2780, 72 h.
The subject of assay [6] is HCT-116. In words: cells. The assay is classed as functional, cell-based. Conditions: Homo sapiens, HCT-116, 72 h.
Assay [7] can be described thus: cells. The format is functional, cell-based. Conditions: Homo sapiens, KATO III, 72 h.
Assay [8] has as its target Fibroblast growth factor receptor 1 (Homo sapiens, UniProt P11362). In words: Inhibition of FGFR1 (unknown origin).
Assay [9] has as its system Jurkat. Description: cells. The assay is classed as functional, cell-based. The following applies: Homo sapiens, 72 h.
Assay [10] has as its target Fibroblast growth factor receptor 2 (Homo sapiens, UniProt P21802). In words: Inhibition of FGFR2 (unknown origin).
In assay [11] the target is Fibroblast growth factor receptor 3 (Homo sapiens, UniProt P22607). Description: Inhibition of FGFR3 (unknown origin).
Chain of Fibroblast growth factor receptor 3 (P22607 whole entry): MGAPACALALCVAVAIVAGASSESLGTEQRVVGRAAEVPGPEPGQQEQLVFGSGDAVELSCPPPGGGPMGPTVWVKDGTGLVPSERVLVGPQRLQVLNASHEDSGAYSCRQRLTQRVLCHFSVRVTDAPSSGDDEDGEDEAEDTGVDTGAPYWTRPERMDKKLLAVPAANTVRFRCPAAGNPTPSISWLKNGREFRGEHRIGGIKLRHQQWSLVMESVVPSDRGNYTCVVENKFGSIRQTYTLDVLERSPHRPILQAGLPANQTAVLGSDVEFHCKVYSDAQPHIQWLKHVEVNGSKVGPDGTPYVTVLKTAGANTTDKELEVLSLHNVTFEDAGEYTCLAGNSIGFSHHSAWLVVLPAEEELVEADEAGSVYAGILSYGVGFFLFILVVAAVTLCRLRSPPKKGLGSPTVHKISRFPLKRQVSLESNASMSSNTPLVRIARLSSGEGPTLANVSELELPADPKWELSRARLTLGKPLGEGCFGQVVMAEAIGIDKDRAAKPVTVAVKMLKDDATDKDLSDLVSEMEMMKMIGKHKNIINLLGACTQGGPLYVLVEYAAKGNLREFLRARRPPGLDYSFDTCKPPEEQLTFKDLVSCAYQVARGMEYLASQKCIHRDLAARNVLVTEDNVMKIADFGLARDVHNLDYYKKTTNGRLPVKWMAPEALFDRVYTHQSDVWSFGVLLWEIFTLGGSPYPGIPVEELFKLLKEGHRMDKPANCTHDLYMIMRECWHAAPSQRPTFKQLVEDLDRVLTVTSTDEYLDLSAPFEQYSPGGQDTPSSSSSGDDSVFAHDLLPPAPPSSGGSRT
For assay [12], the target named is Fibroblast growth factor receptor 4 (Homo sapiens, UniProt P22455). Description: Inhibition of FGFR4 (unknown origin).
Chain of Fibroblast growth factor receptor 4 (P22455 whole entry): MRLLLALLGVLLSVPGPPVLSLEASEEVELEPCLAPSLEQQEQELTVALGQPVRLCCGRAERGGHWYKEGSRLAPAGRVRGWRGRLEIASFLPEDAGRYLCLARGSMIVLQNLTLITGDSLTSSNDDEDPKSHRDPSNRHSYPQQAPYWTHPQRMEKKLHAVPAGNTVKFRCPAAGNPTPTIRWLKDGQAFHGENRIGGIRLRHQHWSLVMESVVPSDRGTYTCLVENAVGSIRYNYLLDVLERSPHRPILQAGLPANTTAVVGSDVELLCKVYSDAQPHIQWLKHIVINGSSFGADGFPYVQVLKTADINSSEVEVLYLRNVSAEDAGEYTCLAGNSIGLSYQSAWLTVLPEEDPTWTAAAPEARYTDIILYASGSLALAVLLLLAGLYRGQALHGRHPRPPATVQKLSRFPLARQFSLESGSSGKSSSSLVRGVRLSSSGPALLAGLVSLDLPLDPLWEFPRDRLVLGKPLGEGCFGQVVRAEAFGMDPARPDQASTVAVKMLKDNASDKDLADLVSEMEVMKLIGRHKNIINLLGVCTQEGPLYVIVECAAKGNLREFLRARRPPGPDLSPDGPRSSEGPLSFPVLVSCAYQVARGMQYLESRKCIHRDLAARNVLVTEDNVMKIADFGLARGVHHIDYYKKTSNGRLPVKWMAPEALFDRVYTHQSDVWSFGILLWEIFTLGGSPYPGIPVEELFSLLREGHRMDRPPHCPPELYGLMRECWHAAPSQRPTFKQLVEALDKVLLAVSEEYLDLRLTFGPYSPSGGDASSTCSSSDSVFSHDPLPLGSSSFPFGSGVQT
Assay [13] deals with T2, Histone deacetylase 8 (Homo sapiens, UniProt Q9BY41).
T2 sequence (Q9BY41 whole entry): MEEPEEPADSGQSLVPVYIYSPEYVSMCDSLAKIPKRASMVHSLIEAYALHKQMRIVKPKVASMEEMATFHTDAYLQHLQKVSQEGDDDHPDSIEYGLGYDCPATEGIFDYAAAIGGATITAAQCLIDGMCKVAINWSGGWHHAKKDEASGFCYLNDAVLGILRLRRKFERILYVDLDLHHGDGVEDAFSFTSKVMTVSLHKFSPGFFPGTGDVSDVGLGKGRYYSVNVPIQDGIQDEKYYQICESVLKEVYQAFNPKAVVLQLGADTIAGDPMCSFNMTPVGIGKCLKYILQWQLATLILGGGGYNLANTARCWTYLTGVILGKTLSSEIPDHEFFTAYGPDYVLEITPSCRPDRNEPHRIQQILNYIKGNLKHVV
Description: Inhibition of HDAC8 (unknown origin).

The subject of assay [14] is SNU-16. The following applies: Homo sapiens, dose 1-100 nM, time 36.0 hrs.
In assay [15] the test system is SNU-16. Conditions: Homo sapiens, dose 1-100 nM, time 36.0 hrs. This is another data set of the same source.

pIC50: −log10 of the molar value. The source made the active and inactive calls. The calls are words filed in the database; no cut-off is given here. Some results are limits rather than exact numbers.

Chain of Histone deacetylase 1 (Q13547 whole entry): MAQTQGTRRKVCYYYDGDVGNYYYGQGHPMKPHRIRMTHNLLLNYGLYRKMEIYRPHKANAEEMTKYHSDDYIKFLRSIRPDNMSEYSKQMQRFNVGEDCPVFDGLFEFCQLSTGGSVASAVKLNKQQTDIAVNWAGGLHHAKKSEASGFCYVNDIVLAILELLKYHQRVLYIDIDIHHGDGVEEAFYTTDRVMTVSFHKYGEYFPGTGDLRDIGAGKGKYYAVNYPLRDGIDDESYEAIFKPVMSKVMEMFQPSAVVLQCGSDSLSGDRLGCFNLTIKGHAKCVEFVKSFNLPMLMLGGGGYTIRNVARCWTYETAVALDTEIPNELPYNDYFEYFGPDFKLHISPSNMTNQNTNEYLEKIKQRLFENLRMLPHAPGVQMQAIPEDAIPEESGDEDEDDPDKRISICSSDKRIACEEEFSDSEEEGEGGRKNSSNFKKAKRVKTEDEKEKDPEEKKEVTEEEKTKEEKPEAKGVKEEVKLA
Chain of Fibroblast growth factor receptor 1 (P11362 whole entry): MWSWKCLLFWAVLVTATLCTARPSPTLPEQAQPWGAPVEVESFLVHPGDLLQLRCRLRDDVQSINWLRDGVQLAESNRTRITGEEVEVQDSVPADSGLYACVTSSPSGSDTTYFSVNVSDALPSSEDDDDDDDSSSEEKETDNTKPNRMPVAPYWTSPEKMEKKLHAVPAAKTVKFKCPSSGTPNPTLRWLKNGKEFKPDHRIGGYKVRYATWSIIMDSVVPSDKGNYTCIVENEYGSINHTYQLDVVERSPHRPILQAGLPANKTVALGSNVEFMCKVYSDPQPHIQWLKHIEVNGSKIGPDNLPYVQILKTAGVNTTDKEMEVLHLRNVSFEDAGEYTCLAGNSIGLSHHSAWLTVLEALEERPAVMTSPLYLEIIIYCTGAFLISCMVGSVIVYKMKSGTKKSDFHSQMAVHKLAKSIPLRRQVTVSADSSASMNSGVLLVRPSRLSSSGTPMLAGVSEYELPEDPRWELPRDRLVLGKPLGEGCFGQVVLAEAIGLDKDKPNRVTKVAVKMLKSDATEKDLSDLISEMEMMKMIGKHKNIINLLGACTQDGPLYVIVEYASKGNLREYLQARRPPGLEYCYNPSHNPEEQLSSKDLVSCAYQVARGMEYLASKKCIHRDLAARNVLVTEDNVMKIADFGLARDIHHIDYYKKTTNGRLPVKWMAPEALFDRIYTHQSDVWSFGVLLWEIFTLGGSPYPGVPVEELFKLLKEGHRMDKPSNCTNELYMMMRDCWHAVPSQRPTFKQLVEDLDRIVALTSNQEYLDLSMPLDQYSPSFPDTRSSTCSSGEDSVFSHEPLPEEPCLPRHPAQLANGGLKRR
Chain of Fibroblast growth factor receptor 2 (P21802 whole entry): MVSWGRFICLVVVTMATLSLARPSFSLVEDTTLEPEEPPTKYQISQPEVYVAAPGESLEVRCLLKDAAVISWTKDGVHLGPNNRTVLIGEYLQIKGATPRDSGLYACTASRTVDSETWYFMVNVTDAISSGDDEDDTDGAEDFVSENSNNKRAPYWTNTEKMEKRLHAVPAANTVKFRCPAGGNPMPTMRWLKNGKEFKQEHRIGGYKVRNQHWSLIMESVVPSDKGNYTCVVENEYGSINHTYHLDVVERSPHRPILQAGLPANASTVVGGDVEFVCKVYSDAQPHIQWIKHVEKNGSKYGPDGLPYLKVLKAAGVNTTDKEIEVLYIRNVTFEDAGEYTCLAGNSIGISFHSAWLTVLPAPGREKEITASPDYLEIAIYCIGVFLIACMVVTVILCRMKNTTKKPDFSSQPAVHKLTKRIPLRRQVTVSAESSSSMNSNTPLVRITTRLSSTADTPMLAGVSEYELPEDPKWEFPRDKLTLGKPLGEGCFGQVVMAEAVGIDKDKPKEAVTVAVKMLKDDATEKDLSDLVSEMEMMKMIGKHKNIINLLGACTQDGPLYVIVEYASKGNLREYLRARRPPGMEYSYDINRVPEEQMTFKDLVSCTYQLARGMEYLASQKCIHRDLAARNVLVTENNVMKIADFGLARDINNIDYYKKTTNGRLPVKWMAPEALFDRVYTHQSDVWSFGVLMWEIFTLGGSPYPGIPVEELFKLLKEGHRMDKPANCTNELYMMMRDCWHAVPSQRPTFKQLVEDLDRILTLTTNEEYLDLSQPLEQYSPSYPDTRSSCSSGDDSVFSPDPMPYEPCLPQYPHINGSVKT

For `COc1cc(OC)cc(N(CCNC(C)C)c2ccc3ncc(-c4cnn(Cc5cccc(C(=O)NO)c5)c4)nc3c2)c1`, the pIC50 in assay [1] was less than 6.00.

`COc1cc(OC)cc(N(CC2CC2)c2ccc3ncc(-c4cnn(CCCCCCCC(=O)NO)c4)nc3c2)c1` showed a pIC50 in assay [1] of 6.76.

For the compound `COc1cc(OC)cc(N(CCNC(C)C)c2ccc3ncc(-c4cnn(Cc5ccc(C(=O)NO)cc5)c4)nc3c2)c1`, the pIC50 in assay [1] was less than 6.00.

In assay [1], `COc1cc(OC)cc(N(CCNC(C)C)c2ccc3ncc(-c4cnn(CCCCCOc5ccc(C(=O)NO)cc5)c4)nc3c2)c1` gave a pIC50 of 6.56.

With `COc1cc(OC)cc(N(CCCCC(=O)NO)c2ccc3ncc(-c4cnn(C)c4)nc3c2)c1`, the figures for the pIC50 in [2] and in assay [1] were 6.97 and 6.80, respectively.

In turn, `COc1cc(OC)cc(N(CC2CC2)c2ccc3ncc(-c4cnn(CCCCCC(=O)NO)c4)nc3c2)c1` gave a negative logarithm of the IC50 (pIC50) in [1] of 7.11.

`COc1cc(OC)cc(N(CCNC(C)C)c2ccc3ncc(-c4cnn(CCCCCCCC(=O)NO)c4)nc3c2)c1` had a pIC50 in assay [1] of 8.20. Against the preceding compound, the pIC50 is 1.09 log units higher.

`COc1cc(OC)cc(N(CC2CC2)c2ccc3ncc(-c4cnn(CCCCC(=O)NO)c4)nc3c2)c1` had a pIC50 in [1] of 6.75.

`COc1cc(OC)cc(N(CCNC(C)C)c2ccc3ncc(-c4cnn(CCCCCC(=O)NO)c4)nc3c2)c1` gave a pIC50 in assay [1] of 8.36. Against the preceding compound, the pIC50 is 1.61 log units higher.

For `COc1cc(OC)cc(N(CCNC(C)C)c2ccc3ncc(-c4cnn(CCCCCCCCC(=O)NO)c4)nc3c2)c1`, the pIC50 in assay [1] is 7.80.

`COc1cc(OC)cc(N(CCNC(C)C)c2ccc3ncc(-c4cnn(Cc5ccc(/C=C/C(=O)NO)cc5)c4)nc3c2)c1`: the pIC50 in assay [3] was 6.34; in assay [4] it was 7.30; in assay [5], 7.22; in assay [6] it was 7.22; in [7] it was 6.92; in assay [1], 7.33. Also, the values for the pIC50 in assay [8] and in [9] were 7.55 and 5.20, respectively.

In the case of `COc1cc(OC)cc(N(CCNC(C)C)c2ccc3ncc(-c4cnn(CCCCOc5ccc(C(=O)NO)cc5)c4)nc3c2)c1`, in assay [1], the pIC50 is 6.80.

`COc1cc(OC)cc(N(CCCCCCC(=O)NO)c2ccc3ncc(-c4cnn(C)c4)nc3c2)c1`: the results for the pIC50 in assay [2] and in [1] were 7.89 and 8.24, respectively.

In the case of `COc1cc(OC)cc(N(CCNC(C)C)c2ccc3ncc(-c4cnn(CCOc5ccc(C(=O)NO)cc5)c4)nc3c2)c1`, the pIC50 in assay [10] is 8.72; in assay [2], 8.47; in assay [11] it was 9.21; in assay [12] it was 8.89; in assay [13], 6.54; in assay [1], 8.23.

In assay [1], `COc1cc(OC)cc(N(CCNC(C)C)c2ccc3ncc(-c4cnn(CCCC(=O)NO)c4)nc3c2)c1` gave a pIC50 of 6.19.

With `COc1cc(OC)cc(N(CC2CC2)c2ccc3ncc(-c4cnn(CCCC(=O)NO)c4)nc3c2)c1`, the pIC50 in [1] is less than 6.00.

Turning to `COc1cc(OC)cc(N(CCCCCC(=O)NO)c2ccc3ncc(-c4cnn(C)c4)nc3c2)c1`, the pIC50 in assay [2] is 8.20; in [1], 8.59.

The compound `COc1cc(OC)cc(N(CCNC(C)C)c2ccc3ncc(-c4cnn(CCCOc5ccc(C(=O)NO)cc5)c4)nc3c2)c1` gave a pIC50 in assay [1] of 6.90.

As to `COc1cc(OC)cc(N(CCNC(C)C)c2ccc3ncc(-c4cnn(Cc5ccc(CC(=O)NO)cc5)c4)nc3c2)c1`, in assay [1], the pIC50 was less than 6.00.

As to `COc1cc(OC)cc(N(CCNC(C)C)c2ccc3ncc(-c4cnn(CCC(=O)Nc5ccc(C(=O)NO)cc5)c4)nc3c2)c1`, in assay [1], the pIC50 was 8.24.

In the case of `COc1cc(OC)cc(N(CCNC(C)C)c2ccc3ncc(-c4cnn(C)c4)nc3c2)c1` [ERDAFITINIB], the pIC50 was 5.52 in assay [3]; 9.15 in assay [4]; 7.70 in [5]; 5.37 in assay [6]; 8.40 in [7]; 5.17 in [9]. For the same compound, the inhibition result in [14] is “Active”. In assay [15], the inhibition result was “Dde”.

For the compound `COc1cc(OC)cc(N(CCNC(C)C)c2ccc3ncc(-c4cnn(CCc5ccc(C(=O)NO)cc5)c4)nc3c2)c1`, the pIC50 in assay [1] is 7.16.
